Results as given in publication PMC6946167, “Characterization of Aspergillus nidulans TRAPPs uncovers unprecedented similarities between fungi and metazoans and reveals the modular assembly of TRAPPII” (PLoS Genetics, 2019).

What was measured:
RAB1 (RabO) = biological target: T1, RAB1 (RabO) (Aspergillus nidulans, UniProt C8V3Z5); test: GDP/mant-GDP exchange, Trp-to-mant FRET ([…] nm), exponential fit; assay type: binding; conditions: 5 uM GDP-loaded GST-RAB1, 50 uM mant-GDP, 10 mM MgCl2, 10 mM KCl, 2 mM DTT, 50 mM Tris-HCl pH 7.5, 30 C; no GEF
T1 construct: gene ANIA_04281; GST fusion, expressed in E. coli, purified on glutathione-Sepharose 4B, GDP-loaded; GST not reported cut
T1 sequence (C8V3Z5 entry or part of it): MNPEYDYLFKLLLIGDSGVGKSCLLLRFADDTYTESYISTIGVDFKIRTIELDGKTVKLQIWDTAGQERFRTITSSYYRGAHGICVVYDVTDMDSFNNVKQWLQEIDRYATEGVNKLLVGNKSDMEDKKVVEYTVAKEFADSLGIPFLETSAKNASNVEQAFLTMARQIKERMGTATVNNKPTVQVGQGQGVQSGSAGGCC

[1] = biological target: TRAPPII from tca17Δ cells (Aspergillus nidulans); test: negative-stain electron microscopy; Trs120-S-purified complexes eluted from S-agarose with S-peptide, concentrated, stained with 2% uranyl acetate; single particle 2D classification

Molecule | koff (RAB1 (RabO)) | percent of particles that are TRAPPII dimers [1] [%]
Nc1nc2c(ncn2[C@@H]2O[C@H](COP(=O)(O)OP(=O)(O)O)[C@@H](O)[C@H]2O)c(=O)[nH]1 [GDP] | Time courses of mant-GDP exchange for GDP were used to calculate the observed koff of GDP | 
TRAPPII from tca17Δ cells (complex) |  | 12
